Key:
[1] = system: SMC; assay: SDS-PAGE / phosphoimager detection of FITC-labeled protein recovered after incubation with SMC; format: cell-based; settings: 50 or 100 mg/mL, 24 h with SMC in culture
Method: SMC were plated in 6-well tissue culture plates at a density of 500,000 cells per well. After 24 h, the media was aspirated and replaced with 1 mL of serum-free media containing 50 or 100 µg/mL of FITC-labeled BSA, collagen, or denatured collagen and placed back in a 37° C., 5% CO2 incubator for 24 h for assembly. The SMC cultured with labeled proteins then were rinsed twice with PBS, after which cell extracts were taken using […] of acidified (0.02M of acetic acid) lysis buffer. Samples […] from each condition before and after culturing with SMC were run on an 1.5-mm SDS-PAGE gel (Biorad apparatus) for 2 h at 150 V. FITC-labeled protein bands were imaged using a phosphoimager (Storm 860, Molecular Dynamics) with the ability to detect green fluorescence.

[2] = system: mouse aortic SMC; assay: Protein assembly assay: FITC-labeled protein added to mouse aortic SMC (plate reader / fluorescence microscopy); format: cell-based; settings: labeled protein incubated with SMC for 24 h
Method: In one embodiment, the assay consists of adding a solution of FITC-labeled protein to cultured cells in the presence or absence of various treatments, then returning the cells to the incubator (37° C., 5% CO2) for various periods of time. Supramolecular protein assembly can be followed in time as a gain of fluorescence using a fluorescence plate reader, or by confocal microscopy with live cells or after fixation of cells. Specifically, for the development of this assay, SMC were used that had been plated into black clear-bottomed 96-well tissue culture-treated plates (Fisher) at 10,000 cells per well in 100 µL of DMEM+10% FBS 2 days prior to performing the assay. […]
At the end of the assay, the culture medium was aspirated and replaced with 10% buffered formalin (Fisher) for 10 min. […] The wells subsequently were washed two times with PBS, then 100 µL of PBS were added to each well and the intensity of the fluorescence was measured with a fluorescence plate reader (CytoFluor® series 4000, PerSeptive Biosystems) using the following settings for protein assembly: ex=480 nm, em=530 nm, gain 85, and ex=360 nm, em=460 nm, gain 80 for cell nuclei.
In each quantitative assay, twelve wells of a 96-well plate were used for each condition. […]

[3] = system: SMC-mediated collagen fibrillogenesis; assay: Treatment effects on SMC-mediated collagen fibrillogenesis (FITC-labeled collagen assembly assay, fluorescence plate reader); format: cell-based, mouse; design: % fibrillogenesis of no treatment control / effect of treatment on SMC-assisted collagen fibrillogenesis (FIG. 5A-B) / effect of treatment on collagen fibrils (FIG. 5C): unit of the concentration uncertain; settings: for % fibrillogenesis of no treatment control: 1 (unit uncertain) of compound (smallest concentration used), green fluorescence normalized by cell density
Method: In one embodiment, the assay consists of adding a solution of FITC-labeled protein to cultured cells in the presence or absence of various treatments, then returning the cells to the incubator (37° C., 5% CO2) for various periods of time. Supramolecular protein assembly can be followed in time as a gain of fluorescence using a fluorescence plate reader, or by confocal microscopy with live cells or after fixation of cells. Specifically, for the development of this assay, SMC were used that had been plated into black clear-bottomed 96-well tissue culture-treated plates (Fisher) at 10,000 cells per well in 100 µL of DMEM+10% FBS 2 days prior to performing the assay.
After 24 h, the culture medium was changed to DMEM without FBS to promote cell quiescence, then SMC were returned to the incubator (37° C., 5% CO2) for an additional 24 h. Before the start of the assay, the culture medium was aspirated from each well and replaced with 100 µL of FITC-labeled collagen, BSA, or denatured collagen in DMEM without FBS, final concentration between […]. The cells were returned to the incubator for time periods up to 24 h.
At the end of the assay, the culture medium was aspirated and replaced with 10% buffered formalin (Fisher) for 10 min. For normalization of results, cell nuclei were counterstained using HOECHST [500 ng/mL in phosphate-buffered saline (PBS), pH 7.4] for 5 min. The wells subsequently were washed two times with PBS, then 100 µL of PBS were added to each well and the intensity of the fluorescence was measured with a fluorescence plate reader (CytoFluor® series 4000, PerSeptive Biosystems) using the following settings for protein assembly: ex=480 nm, em=530 nm, gain 85, and ex=360 nm, em=460 nm, gain 80 for cell nuclei.
In each quantitative assay, twelve wells of a 96-well plate were used for each condition. Average background readings were obtained from wells without cells or without labeled collagen monomer solution (six each) to ensure that the assay measured only the cell-assisted protein assembly.
To assess the ability of our assay to detect the effects of treatments that interfere with cell cytoskeleton, and therefore may affect fibrillogenesis, SMC were pretreated with […] of cytochalasin D, a chemical that disrupts organization of the actin cytoskeleton, for 30 min prior to the assay. The same concentrations were maintained throughout the assay. Retinoic acid, which has the opposite effect, stiffening SMC cytoskeleton, was added at […] of final concentrations.
To test whether the assay can detect formation of fibrils by incorporating de novo synthesized endogenous collagen, effect of treatments that should directly affect this process were investigated. Ascorbic acid, which enhances the triple helix organization of de novo synthesized collagen, was added at 5, 10, and 50 µM of final concentrations to the SMC culture medium for 24 h prior to the assay and maintained throughout the assay. Homocysteine thiolactone, which is a lysyl oxidase inhibitor and thus impairs the higher organization of collagen, was used at 5, 10, 50, 100, and 500 µM of final concentration in the SMC culture media. To assess the potential effects of these treatments, fibrillogenesis was calculated as the percentage of fibrillogenesis mediated by nontreated SMC.

Compound: labeled BSA: FITC-labeled bovine serum albumin
- association of labeled protein with SMC monolayer (SDS-PAGE) [1]: neither BSA nor denatured collagen was associated with cells
- supramolecular assembly seen by fluorescence microscopy [2]: No assembly was detected

Compound: CC1=C(/C=C/C(C)=C/C=C/C(C)=C/C(=O)O)C(C)(C)CCC1 [retinoic acid, Retinoic acid]
- % fibrillogenesis of no treatment control [3]: 59.5±9.4%

Compound: O=C1O[C@H]([C@@H](O)CO)C(O)=C1O [ascorbic acid, Ascorbic acid]
- effect of treatment on collagen fibrils (FIG. 5C) ([3]; 5, 10, 50 (unit uncertain), added 24 h prior to the assay and maintained throughout): moderate, yet statistically significant, enhancement of collagen fibrils

Compound: C=C1[C@@H](C)[C@H]2[C@H](Cc3ccccc3)NC(=O)[C@]23[C@H](OC(C)=O)/C=C/[C@@](C)(O)C(=O)[C@@H](C)C/C=C/[C@H]3[C@@H]1O [cytochalasin D, Cytochalasin D]
- % fibrillogenesis of no treatment control [3]: 12.1±1.0%
- effect of treatment on SMC-assisted collagen fibrillogenesis (FIG. 5A-B) ([3]; increasing concentrations (1, 5, 10 (unit uncertain))): impairs the ability of SMC to facilitate fibrillogenesis

Compound: NC1CCSC1=O (stereo not shown) [homocysteine thiolactone, Homocysteine thiolactone]
- effect on SMC-mediated collagen assembly ([3]; up to concentrations twice the IC50 value (5-500 M), data not shown): no effects
